Our source for the EC50 values is patent publication US11708348B2, “Protease inhibitors for treatment of coronavirus infections” (The Scripps Research Institute, priority 2021, dated 2023).

Broadly, the EC50 is the midpoint of the concentration-response curve.

Each structure is given as a SMILES string.

The first test deals with SARS-CoV-2 strain USA-WA1/2020. The test can be described thus: microbe, parasite or virus in culture. As to conditions: Severe acute respiratory syndrome coronavirus 2, HeLa-ACE2, 24 h, HeLa-ACE2 cells, SARS-CoV-2 infection, 24 h; given as bound; read-out: EC50, uM (Hela). The format is cell-based.
With `CO[C@@H]1C[C@@H](C(=O)N[C@@H](C[C@@H]2CCNC2=O)C(=O)COC(F)(F)F)N(C(=O)C(=O)NC(C)(C)C)C1` [Compound 537, (2S,4R)-1-(2-(tert-butylamino)-2-oxoacetyl)-4-methoxy-N-((S)-3-oxo-1-((S)-2-oxopyrrolidin-3-yl)-4-(trifluoromethoxy)butan-2-yl)pyrrolidine-2-carboxamide], the EC50 was over 1 µM.

Take `CC1(C)C[C@@H](C(=O)N[C@@H](C[C@@H]2CCNC2=O)C(=O)COC(F)(F)F)N(C(=O)C(=O)NC2(C)CC2)C1` [Compound 540, (S)-4,4-dimethyl-1-(2-((1-methylcyclo-propyl)amino)-2-oxoacetyl)-N-((S)-3-oxo-1-((S)-2-oxopyrrolidin-3-yl)-4-(trifluoromethoxy)butan-2-yl)pyrrolidine-2-carboxamide]: the EC50 was over 1 µM. As for `CC1(NC(=O)C(=O)N2[C@H](C(=O)N[C@@H](C[C@@H]3CCNC3=O)C(=O)COC(F)(F)F)CCC23CC3)CC1` [Compound 541, (S)-4-(2-((l-methyl-cyclopropyl)amino)-2-oxoacetyl)-N-((S)-3-oxo-1-((S)-2-oxopyrrolidin-3-yl)-4-(trifluoromethoxy)butan-2-yl)-4-azaspiro-[2.4]heptane-5-carboxamide], the EC50 was over 1 µM.

Turning to `C[C@@H]1C[C@H]2[C@H](C[C@H](C(=O)N[C@@H](C[C@@H]3CCNC3=O)C(=O)COC(F)(F)F)N2C(=O)C(=O)NC(C)(C)C)O1` [Compound 547, (2R,3aS,5R,6aS)-4-(2-(tert-butylamino)-2-oxoacetyl)-2-methyl-N-((S)-3-oxo-1-((S)-2-oxopyrrolidin-3-yl)-4-(trifluoromethoxy)butan-2-yl)hexahydro-2H-furo[3,2-b]pyrrole-5-carboxamide], the EC50 is over 1 µM.

Still in this test, the particulars now being: Severe acute respiratory syndrome coronavirus 2, HeLa-ACE2, 24 h, HeLa-ACE2 cells, SARS-CoV-2 infection, 24 h; read-out: EC50, uM (Hela).
Take `Cc1ccccc1NC(=O)C(=O)N1CC2(CC2)C[C@H]1C(=O)N[C@@H](C[C@@H]1CCNC1=O)C(=O)COC(F)(F)F` [Compound 527, (S)-N-((S)-3-oxo-1-((S)-2-oxopyrrolidin-3-yl)-4-(trifluoromethoxy)butan-2-yl)-5-(2-oxo-2-(o-tolylamino)acetyl)-5-azaspiro[2.4]heptane-6-carboxamide]: the EC50 was under 0.05 µM. As to `CC(C)(C)C[C@H](NC(=O)C(=O)Nc1ccccc1F)C(=O)N[C@@H](C[C@@H]1CCNC1=O)C(=O)COC(F)(F)F` [Compound 528, N1-((S)-4,4-dimethyl-1-oxo-1-(((S)-3-oxo-1-((S)-2-oxopyrrolidin-3-yl)-4-(trifluoromethoxy)butan-2-yl)amino)pentan-2-yl)-N2-(2-fluorophenyl)-oxalamide], the EC50 is under 0.05 µM. Same read-out and setting: as for `CN(C(=O)C(=O)NC(C)(C)C)[C@H](C(=O)N[C@@H](C[C@@H]1CCNC1=O)C(=O)COC(F)(F)F)C1CCCC1` [Compound 529, N1-(tert-butyl)-N2-((S)-1-cyclopentyl-2-oxo-2-(((S)-3-oxo-1-((S)-2-oxopyrrolidin-3-yl)-4-(trifluoromethoxy)butan-2-yl)amino)ethyl)-N2-methyloxalamide], the figure is 0.05 to 0.2 µM.

Consider `O=C(Nc1ccccc1F)C(=O)N1CC2(CCOCC2)CC1C(=O)N[C@@H](C[C@@H]1CCNC1=O)C(=O)COC(F)(F)F` (stereo partly drawn) [Compound 530, 2-(2-((2-fluorophenyl)amino)-2-oxoacetyl)-N-((S)-3-oxo-1-((S)-2-oxopyrrolidin-3-yl)-4-(trifluoromethoxy)butan-2-yl)-8-oxa-2-azaspiro[4.5]decane-3-carboxamide], for which the EC50 lay within 0.5 to 1 µM. As for `CC(C)(C)NC(=O)C(=O)N1CC2(CCCCC2)CC1C(=O)N[C@@H](C[C@@H]1CCNC1=O)C(=O)COC(F)(F)F` (stereo partly drawn) [Compound 531, 2-(2-(tert-butylamino)-2-oxoacetyl)-N-((S)-3-oxo-1-((S)-2-oxopyrrolidin-3-yl)-4-(trifluoromethoxy)butan-2-yl)-2-azaspiro[4.5]decane-3-carboxamide], the EC50 was under 0.05 µM. The same measure, in the same setting: with `CC(C)(C)C[C@H](NC(=O)c1cc(C(F)F)on1)C(=O)N[C@@H](C[C@@H]1CCNC1=O)C(=O)COC(F)(F)F` [Compound 532, 5-(difluoromethyl)-N-((S)-4,4-dimethyl-1-oxo-1-(((S)-3-oxo-1-((S)-2-oxopyrrolidin-3-yl)-4-(trifluoromethoxy)butan-2-yl)amino)pentan-2-yl)isoxazole-3-carboxamide] the figure was under 0.05 µM; with `Cn1ccc(C(=O)N2C[C@@H]3CCC[C@@H]3[C@H]2C(=O)N[C@@H](C[C@@H]2CCNC2=O)C(=O)COC(F)(F)F)n1` [Compound 533, (1S,3aR,6aS)-2-(1-methyl-1H-pyrazole-3-carbonyl)-N-((S)-3-oxo-1-((S)-2-oxopyrrolidin-3-yl)-4-(trifluoromethoxy)butan-2-yl)octahydrocyclo-penta[c]pyrrole-1-carboxamide], 0.5 to 1 µM; with `Cn1ccc(NC(=O)C(=O)N2C[C@@H]3CCC[C@@H]3[C@H]2C(=O)N[C@@H](C[C@@H]2CCNC2=O)C(=O)COC(F)(F)F)n1` [Compound 534, (1S,3aR,6aS)-2-(2-((l-methyl-1H-pyrazol-3-yl)amino)-2-oxoacetyl)-N-((S)-3-oxo-1-((S)-2-oxopyrrolidin-3-yl)-4-(trifluoromethoxy)butan-2-yl)octahydrocyclo-penta[c]pyrrole-1-carboxamide], 0.05 to 0.2 µM. On the same count and under the same terms, as for `Cn1ccc(NC(=O)C(=O)N2C[C@H]3[C@@H]([C@H]2C(=O)N[C@@H](C[C@@H]2CCNC2=O)C(=O)COC(F)(F)F)C3(C)C)n1` [Compound 535, (1R,2S,5S)-6,6-dimethyl-3-(2-((l-methyl-1H-pyrazol-3-yl)amino)-2-oxoacetyl)-N-((S)-3-oxo-1-((S)-2-oxopyrrolidin-3-yl)-4-(trifluoromethoxy)butan-2-yl)-3-azabicyclo-[3.1.0]hexane-2-carboxamide], the figure is 0.05 to 0.2 µM. Still for that read-out and setting: as for `CC1(C)[C@@H]2[C@@H](C(=O)N[C@@H](C[C@@H]3CCNC3=O)C(=O)COC(F)(F)F)N(C(=O)C(=O)NC3CC(F)(F)C3)C[C@@H]21` [Compound 536, (1R,2S,5S)-3-(2-((3,3-difluorocyclo-butyl)amino)-2-oxoacetyl)-6,6-dimethyl-N-((S)-3-oxo-1-((S)-2-oxopyrrolidin-3-yl)-4-(trifluoromethoxy)butan-2-yl)-3-azabicyclo-[3.1.0]hexane-2-carboxamide], the figure is 0.05 to 0.2 µM; as for `CC(C)(C)C[C@H](NC(=O)c1cnc(C(F)(F)F)s1)C(=O)N[C@@H](C[C@@H]1CCNC1=O)C(=O)COC(F)(F)F` [Compound 538, N-((S)-4,4-dimethyl-1-oxo-1-(((S)-3-oxo-1-((S)-2-oxopyrrolidin-3-yl)-4-(trifluoromethoxy)butan-2-yl)amino)pentan-2-yl)-2-(trifluoromethyl)-thiazole-5-carboxamide], under 0.05 µM; as for `O=C(Nc1ccccc1F)C(=O)N1[C@H](C(=O)N[C@@H](C[C@@H]2CCNC2=O)C(=O)COC(F)(F)F)C[C@@H]2C[C@@H]21` [Compound 539, (1S,3S,5S)-2-(2-((2-fluorophenyl)amino)-2-oxoacetyl)-N-((S)-3-oxo-1-((S)-2-oxopyrrolidin-3-yl)-4-(trifluoromethoxy)butan-2-yl)-2-azabicyclo-[3.1.0]hexane-3-carboxamide], 0.05 to 0.2 µM. As to `O=C(NCC(F)(F)F)C(=O)N1[C@@H]2CC[C@@H](C2)[C@H]1C(=O)N[C@@H](C[C@@H]1CCNC1=O)C(=O)COC(F)(F)F` [Compound 542, (1R,3S,4S)-N-((S)-3-oxo-1-((S)-2-oxopyrrolidin-3-yl)-4-(trifluoromethoxy)butan-2-yl)-2-(2-oxo-2-((2,2,2-trifluoroethyl)-amino)acetyl)-2-azabicyclo[2.2.1]-heptane-3-carboxamide], the EC50 fell in the range of 0.05 to 0.2 µM. In the case of `CC1(C)C[C@@H](C(=O)N[C@@H](C[C@@H]2CCNC2=O)C(=O)COC(F)(F)F)N(C(=O)C(=O)NC2CC(F)(F)C2)C1` [Compound 543, (S)-1-(2-((3,3-difluorocyclo-butyl)amino)-2-oxoacetyl)-4,4-dimethyl-N-((S)-3-oxo-1-((S)-2-oxopyrrolidin-3-yl)-4-(trifluoromethoxy)butan-2-yl)pyrrolidine-2-carboxamide], the EC50 fell in the range of 0.5 to 1 µM.

As to `O=C1NCC[C@H]1C[C@H](NC(=O)[C@@H]1[C@H]2CCC[C@H]2CN1C(=O)C(=O)N1CCOCC1)C(=O)COC(F)(F)F` [Compound 544, (1S,3aR,6aS)-2-(2-morpholino-2-oxoacetyl)-N-((S)-3-oxo-1-((S)-2-oxopyrrolidin-3-yl)-4-(trifluoromethoxy)butan-2-yl)octahydrocyclo-penta[c]pyrrole-1-carboxamide], the EC50 lay in the range of 0.5 to 1 µM. `Cc1cc(C(=O)N2C[C@@H]3CCC[C@@H]3[C@H]2C(=O)N[C@@H](C[C@@H]2CCNC2=O)C(=O)COC(F)(F)F)no1` [Compound 545, (1S,3aR,6aS)-2-(5-methylisoxazole-3-carbonyl)-N-((S)-3-oxo-1-((S)-2-oxopyrrolidin-3-yl)-4-(trifluoromethoxy)butan-2-yl)octahydrocyclopenta[c]pyrrole-1-carboxamide]: the EC50 fell in the range of 0.05 to 0.2 µM. Still for that read-out and setting: as for `CC1(NC(=O)C(=O)N2[C@H]3CC[C@H](C3)[C@H]2C(=O)N[C@@H](C[C@@H]2CCNC2=O)C(=O)COC(F)(F)F)CC1` [Compound 546, (1S,3S,4R)-2-(2-((l-methylcyclopropyl)-amino)-2-oxoacetyl)-N-((S)-3-oxo-1-((S)-2-oxopyrrolidin-3-yl)-4-(trifluoromethoxy)butan-2-yl)-2-azabicyclo-[2.2.1]heptane-3-carboxamide], the figure is 0.2 to 0.5 µM; as for `O=C(N[C@H]1[C@@H]2COC[C@@H]21)C(=O)N1C[C@@H]2CCC[C@@H]2[C@H]1C(=O)N[C@@H](C[C@@H]1CCNC1=O)C(=O)COC(F)(F)F` [Compound 548, (1S,3aR,6aS)-2-(2-(((1R,5S,6r)-3-oxabicyclo[3.1.0]-hexan-6-yl)amino)-2-oxoacetyl)-N-((S)-3-oxo-1-((S)-2-oxopyrrolidin-3-yl)-4-(trifluoromethoxy)butan-2-yl)octahydrocyclo-penta[c]pyrrole-1-carboxamide], 0.2 to 0.5 µM.
